Results taken from patent US10709724B2, “Methods of treating mitochondrial dysfunction” (Ecole Polytechnique Federale de Lausanne (EPFL), priority 2011, dated 2020).

Key:
[1] = system: C2C12 myotubes, Hepa1.6 and HEK293T cells; assay: Total intracellular NAD+ content after NR in cell lines; format: cell-based, murine and human; conditions: 24 hrs
Excerpt: Murine Hepa1.6 and HEK293T cells were maintained in 4.5 g/L glucose DMEM, 10% FCS. For the transfection of HEK293T cells JetPei was used (Polyplus transfections, Illkirch, France) according to the description of the company. PARP-2 depletion and overexpression took place as described in (Bai et al. 2007).
C2C12 cells were maintained in 4.5 g/L glucose DMEM, 10% FCS and were differentiated in 4.5 g/L glucose DMEM, 2% horse serum for 2 days, when cells were considered myofibers. PARP-2 was depleted from C2C12 cells using lentiviral shRNA system (MISSION Lentiviral Vectors, Sigma-Aldrich). The vectors contained the interfering and control sequences described in (Bai et al. 2007). C2C12 cells were transduced with 20 MOI virus and were selected with […] puromycin. Cells withstanding puromycin selection were subcultured. […] The efficiency of knock-down at the mRNA level was assessed by RT-qPCR.
NAD^+ NAM Determination. NAD^+ levels in cultured cells were determined using a commercial kit (Enzychrom™, BioAssays Systems, CA). For tissue samples NAD^+ and NAM levels were determined as described in (Sauve et al., 2005). […] Clear supernatant was injected onto HPLC C-18 column with 20 mM ammonium acetate eluent to separate NAD^+ and NAM from other cellular components, NAD^+ and NAM peaks (260 nm absorbance) were collected. […]

C57Bl/6J mice = assay: NAD+ content in mouse tissues after one week of supplemented chow; format: in vivo; conditions: 400 mg/kg/day in chow
Procedure: Animal Experiments. […] In other animal experiments, 8 weeks-old male C57Bl/6J mice were purchased from Charles River and powder chow (D12450B) and high fat (D12492) diets were from Research Diets Inc (New Brunswick, N.J., USA). 80 ml of water per kg of powder CD were used to make food pellets. 40 ml of water per kg of powder HFD were used to make food pellets. […] Mice were housed separately, had ad libitum access to water and food and were kept under a 12 h dark-light cycle. Mice were fed with homemade pellets from 10 weeks of age. […] All animal experiments were carried out according to local national and EU ethical guidelines. To monitor body weight, mice were weighed and the food consumption was measured each week on the same day. In case of PJ34 treatment, mice received each 12 h (at 7:00 and 19:00) 10 mg/kg PJ34 by intraperitoneal injection for 5 continuous days. In all studies animals were killed (at 14:00) either after CO2 inhalation or cervical dislocation after 6 h of fasting (starting at 8:00), and tissues were collected and processed as specified below. […] Plasma insulin and was determined in heparinized plasma samples using specific ELISA kits (Mercodia). Blood samples were collected in heparinized tubes and plasma was isolated after centrifugation. Plasma parameters were measured using a Cobas c111 (Roche Diagnostics). […] The respiratory quotient was the ratio of CO2 production over O2 consumption. During actimetry, beamline crossings were summarized each 15 minutes.
NAD^+ NAM Determination. NAD^+ levels in cultured cells were determined using a commercial kit (Enzychrom™, BioAssays Systems, CA). […] 70 L of ice-cold 7% perchloric acid was then added and the sample was vortexed and sonicated three times, then centrifuged. Clear supernatant was removed and neutralized by additions of 3 M NaOH and 1 M phosphate buffer (pH=9), then centrifuged. Clear supernatant was injected onto HPLC C-18 column with 20 mM ammonium acetate eluent to separate NAD^+ and NAM from other cellular components, NAD^+ and NAM peaks (260 nm absorbance) were collected. Collections were lyophilized to dryness and subjected to MALDI-TOF analysis. […] Corrections were applied for isotopic abundance.

C2C12 myotubes = assay: Oxygen consumption in cultured C2C12 myotubes; format: cell-based
Procedure: Oxygen Consumption in Cultured Cells. Cellular O2 consumption was measured using a Seahorse bioscience XF24 analyzer with […] biological replicates per condition, in 24 well plates at 37° C., exactly as described (Canto et al., 2009). C2C12 were infected with an adenovirus encoding for FLAG-HA-PGC-1 and either scramble or SIRT1 shRNAs 48 h previous to O2 consumption measurements. Then myotubes were treated with 1 μM PJ34 for 48 h. In order to measure the contribution of fatty acid oxidation to global O2 consumption, total cellular O2 consumption was measured for 6 successive 2 min measurements at 5 min intervals. Then, 50 μl of etomoxir (1 M; Calbiochem, San Diego, Calif., USA) were added and, after […], 6 successive 2 min measurements were performed at 5 min intervals. The remaining O2 consumption was attributed to non-lipid substrates, while the difference with the initial O2 consumption values was considered due to fatty acid oxidation.

| Compound | ability to increase intracellular NAD+ compared with NMN and NA ([1]; 0.5 mM) | intracellular NAD+ levels [1] | NAD+ levels in liver (C57Bl/6J mice) | mitochondrial NAD+ levels in mouse liver (C57Bl/6J mice) | muscle NAD+ content (C57Bl/6J mice; quadriceps) | O2 consumption rates (C2C12 myotubes; 1 μM PJ34, 48 h) | O2 consumption with SIRT1 knock-down (C2C12 myotubes; SIRT1 shRNA) | substrate contribution to the increase in O2 consumption (C2C12 myotubes; etomoxir) |
| --- | --- | --- | --- | --- | --- | --- | --- | --- |
| NC(=O)c1ccc[n+]([C@@H]2O[C@H](CO)[C@@H](O)[C@H]2O)c1 [NR, nicotinamide riboside] | at least, similar to that of these other precursors | dose-dependently increased intracellular NAD^+ levels | increased NAD^+ levels in liver | mitochondrial NAD^+ levels were enhanced | significantly enhanced muscle NAD^+ content |  |  |  |
| CN(C)CC(=O)Nc1ccc2[nH]c(=O)c3ccccc3c2c1 [PJ34] |  |  |  |  |  | enhanced oxidative metabolism | largely blunted | combination of enhanced oxidation of lipid and non-lipid substrates |
